The values that follow come from patent publication US20070122422A1, “Sodium-independent small neutral amino acid transporter transporting L- and D- amino acids” (Japan Science and Technology Corporation, priority 2000, published 2007).

Holding throughout (assay type): cell-based
Assay [1] addresses T1, asc-1 of mouse (co-expressed with 4F2hc of mouse) (Mus musculus, UniProt P63115).
T1 construct: expressed in transfected cells; host or cells: Xenopus oocytes injected with cRNA
T1 sequence (P63115 1-530): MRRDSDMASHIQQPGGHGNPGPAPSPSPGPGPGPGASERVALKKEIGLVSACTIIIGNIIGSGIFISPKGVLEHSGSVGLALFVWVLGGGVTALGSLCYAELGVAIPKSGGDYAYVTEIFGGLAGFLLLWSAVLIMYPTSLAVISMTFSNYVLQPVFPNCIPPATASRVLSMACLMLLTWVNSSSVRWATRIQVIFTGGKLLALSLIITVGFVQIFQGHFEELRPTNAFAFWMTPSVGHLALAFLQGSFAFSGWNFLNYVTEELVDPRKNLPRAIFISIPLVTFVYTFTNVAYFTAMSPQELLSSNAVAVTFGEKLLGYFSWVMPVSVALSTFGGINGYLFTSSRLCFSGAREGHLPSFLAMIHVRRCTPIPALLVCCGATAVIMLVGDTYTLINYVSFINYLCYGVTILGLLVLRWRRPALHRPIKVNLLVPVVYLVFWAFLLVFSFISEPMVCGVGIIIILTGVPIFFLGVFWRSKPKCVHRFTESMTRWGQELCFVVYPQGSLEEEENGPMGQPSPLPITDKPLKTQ
T1 sequence (P10852 1-526 partner): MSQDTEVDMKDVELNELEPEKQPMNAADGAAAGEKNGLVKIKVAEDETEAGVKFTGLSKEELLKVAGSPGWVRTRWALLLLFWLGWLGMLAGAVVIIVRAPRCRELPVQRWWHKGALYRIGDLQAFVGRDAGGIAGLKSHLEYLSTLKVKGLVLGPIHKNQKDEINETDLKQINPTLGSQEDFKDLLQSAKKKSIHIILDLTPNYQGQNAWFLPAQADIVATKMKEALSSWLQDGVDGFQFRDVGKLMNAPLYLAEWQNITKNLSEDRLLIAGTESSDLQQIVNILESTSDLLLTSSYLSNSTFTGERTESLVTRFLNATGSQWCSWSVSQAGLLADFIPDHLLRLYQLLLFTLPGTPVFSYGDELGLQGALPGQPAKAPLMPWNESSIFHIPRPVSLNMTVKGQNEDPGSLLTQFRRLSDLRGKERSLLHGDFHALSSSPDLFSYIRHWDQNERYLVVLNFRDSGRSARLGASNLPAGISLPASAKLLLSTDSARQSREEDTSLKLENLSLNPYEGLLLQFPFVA
Briefly: Michaelis-Menten kinetic test of substrate incorporation by Xenopus oocytes co-expressing asc-1 and 4F2hc. Conditions: ratio to the Vmax value for alanine (defined as 1.00). As for the experimental part: (§1) Into oocytes were injected 12 ng of asc-1 gene cRNA of mouse, 13 ng of 4F2hc gene cRNA of mouse or 12 ng asc-1 gene cRNA of mouse/13 ng of 4F2hc gene cRNA of mouse to express followed by incubating for 3 days. […] Thus, the oocytes were allowed to stand for 30 minutes in a Na^+-free uptake solution [100 mM choline chloride, 2 mM potassium chloride, 1.8 mM calcium chloride, 1 mM magnesium chloride, 5 mM HEPES; pH 7.4] containing ^14C-alanine (100 μM) as a substrate and the rate of the substrate incorporated into the cells was measured by way of counting the radioactivity incorporated thereinto.
A Michaelis-Menten kinetic test was carried out for a sodium-independent small neutral amino acid transporter asc-1 which transports L- and D-amino acids. By checking the changes in the rate of incorporation of alanine due to the difference in concentration of the alanine substrate, the Michaelis-Menten kinetic test of asc-1 was carried out.
An experiment for the incorporation of alanine was carried out according to the method mentioned in the above Example 2(1) using the oocytes into which both asc-1 gene cRNA of mouse and 4F2hc gene cRNA of mouse were injected.
With regard to amino acids other than alanine which were used as substrates, a Michaelis-Menten kinetic was carried out as well in the same manner whereupon Km values and Vmax values were calculated. Each Vmax value in Table 1 was shown in terms of the ratio when the Vmax value of alanine was defined as 1.00.

Assay [2] concerns the target T1, asc-1 of mouse (co-expressed with 4F2hc of mouse). Briefly: Inhibition of 14C-alanine incorporation by added amino acids and analogs in oocytes co-expressing asc-1 and 4F2hc. As to conditions: 14C-alanine 50 μM; 5 mM non-labeled compound; Na+-free uptake solution. As for the experimental part: as §1
In an experiment of incorporation of alanine by oocytes into which both asc-1 gene cRNA of mouse and 4F2hc gene cRNA of mouse were injected, influence of addition of various amino acid and analogs thereof was investigated.
In an experiment of incorporation of alanine, a method according to that mentioned in the above Example 2(1) was carried out using oocytes into which both asc-1 gene cRNA of mouse and 4F2hc gene cRNA of mouse were injected. Here, a Na^+-free uptake solution was used and incorporation of ^14C-alanine (50 μM) was measured in the presence and absence of 5 mM of various compounds (non-labeled).

The target is the same in assay [3]. Briefly: Incorporation of radiolabeled amino acids and analogs by oocytes co-expressing asc-1 and 4F2hc. Conditions: for incorporation into the oocytes as substrate: radiolabeled substrate, oocytes expressing both asc-1 and 4F2hc, Na+-free uptake solution; for transport by asc-1 (affinity in words): summary statement, asc-1 co-existing with 4F2hc. As for the experimental part:
Incorporation of alanine when asc-1 gene cRNA of mouse was solely expressed in oocytes of Xenopus and when asc-1 gene cRNA of mouse and 4F2hc gene cRNA of mouse were expressed in oocytes of Xenopus together was compared.
as §1
In an experiment of incorporation of alanine by oocytes into which both asc-1 gene cRNA and 4F2hc gene cRNA of mouse were injected together, influence of the salt added to the medium was investigated.
The experiment of incorporation of alanine was carried out in accordance with the method mentioned in the above Example 2(1) using oocytes into which both asc-1 gene cRNA and 4F2hc gene cRNA of mouse were injected together. When the influence of sodium ion was checked however, a standard uptake solution (where 100 mM choline chloride was substituted with 100 mM sodium chloride) was used in place of the Na^+-free uptake solution as the uptake solution. When the influence of chlorine ion was checked, a gluconic acid uptake solution (where 100 mM sodium chloride was substituted with 100 mM sodium gluconate) was used in place of the standard uptake solution.
Incorporation by asc-1 was investigated using various amino acids and analogs thereof as substrates. Experiment for incorporation of various amino acids and analogs thereof was carried out according to the method mentioned in the above Example 2(1) using oocytes into which asc-1 gene cRNA of mouse and 4F2hc gene cRNA of mouse were injected together. With regard to the substrates however, various compounds labeled with radioactivity were used in place of ^14C-alanine.
Influence of pH was checked in an experiment for incorporation of alanine by oocytes into which both asc-1 gene cRNA and 4F2hc gene cRNA of mouse were injected together. With regard to an experiment for incorporation of alanine, the method according to that mentioned in the above Example 2 (1) was carried out using oocytes into which both asc-1 gene cRNA of mouse and 4F2hc gene cRNA of mouse were injected together.

The target is the same in assay [4]. Description: Release of preloaded 14C-alanine from oocytes co-expressing asc-1 and 4F2hc on extracellular addition of compound. As to conditions: 100 μM compound added to Na+-free uptake solution; room temperature. As for the experimental part:
Release of a preloaded ^14C-alanine mediated by asc-1 was checked in the oocytes into which both asc-1 gene cRNA and 4F2hc gene cRNA of mouse were injected together. ^14C-Alanine (−3nCi) of 100 μM in an amount of 100 nl was injected into the oocytes into which both asc-1 gene cRNA and 4F2hc gene cRNA of mouse were injected together, washed with an ice-cooled Na^+-free uptake solution containing no alanine and transferred to a Na^+-free uptake solution to which alanine (100 μM) was added or not added at room temperature (18° C.-22° C.) and the amount of ^14C-alanine released outside the cells was measured.
In oocytes into which cRNA of asc-1 gene and cRNA of 4F2hc gene of mouse were injected together, release of preloaded ^14C-alanine mediated by asc-1 was investigated whereupon it was checked whether the compound which inhibited the incorporation of ^14C-alanine mediated by asc-1 was a substrate of asc-1.
^14C-Alanine (−3nCi) of 100 μM in an amount of 100 nl was injected into the oocytes into which both asc-1 gene cRNA and 4F2hc gene cRNA of mouse were injected together, washed with an ice-cooled Na^+-free uptake solution containing no alanine and transferred to a Na^+-free uptake solution to which amino acid or amino acid analog (100 μM) was added or not added at room temperature (18° C.-22° C.) and the amount of ^14C-alanine released outside the cells was measured.
Black bars in FIG. 18 are the case where there were used oocytes into which cRNA of mouse asc-1 gene and cRNA of mouse 4F2hc gene were injected while white bars are the case where there were used oocytes into which water was injected instead of cRNA as a control.

The target in assay [5] is T2, intracellular substrate-binding site of asc-1 of mouse (Mus musculus, UniProt P63115).
T2 construct: expressed in transfected cells; host or cells: Xenopus oocytes injected with cRNA
T2 sequence (P63115 1-530): T1 sequence (P63115 1-530)
T2 sequence (P10852 1-526 partner): T1 sequence (P10852 1-526 partner)
Description: Release of injected 14C-amino acid from oocytes co-expressing asc-1 and 4F2hc on extracellular alanine. Conditions: alanine 100 μM added to Na+-free uptake solution. As for the experimental part:
In oocytes into which cRNA of asc-1 gene and cRNA of 4F2hc gene of mouse were injected together, release of preloaded ^14C-amino acid mediated by asc-1 was checked whereby the substrate selectivity of intracellular substrate-binding site of asc-1 was checked.
^14C-Amino acid (˜3nCi) of 100 μM in an amount of 100 nl was injected into the oocytes into which both asc-1 gene cRNA and 4F2hc gene cRNA of mouse were injected together, washed with an ice-cooled Na^+-free uptake solution containing no alanine and transferred to a Na^+-free uptake solution to which alanine (100 μM) was added or not added at room temperature (18° C.-22° C.) and the amount of ^14C-amino acid released outside the cells was measured.
Black bars in FIG. 21 show the case where alanine was added to a Na^+-free uptake solution while bars with oblique lines show the case where alanine was not added to a Na^+-free uptake solution.

As to `CC(C)(N)C(=O)O` [AIB, α-aminoisobutyric acid], the Vmax in assay [1] is 0.81. In addition, in assay [2], the “inhibition of incorporation of 14C-alanine mediated by asc-1” value (“inhibition” below) was “inhibited”. Also, in assay [3], the “incorporation into the oocytes as substrate” value (“incorporation into the oocytes” for short) was “big incorporation” and the “transport by asc-1 (affinity in words)” value is reported as “transports”. The “increase in the release of preloaded 14C-alanine” value (shortened to “increase in the release”) in assay [4] is “significant increase”.

As to `NC1(C(=O)O)CC2CCC1C2` (stereo not shown) [BCH, 2-amino-2-norbornane-carboxylic acid], the “inhibition” value in assay [2] is “did not affect”.

As for `C[C@@H](N)C(=O)O` [D-Alanine], the Vmax in assay [1] is 0.86. Besides, in assay [2], the “inhibition” value was “strongly inhibited”. Further, in assay [3], the “incorporation into the oocytes” value was “big incorporation” and the “transport by asc-1 (affinity in words)” value is reported as “transports”. The “increase in the release” value in assay [4] was “significant increase”.

As to `N[C@H](CO)C(=O)O` [D-Serine], the Vmax in assay [1] is reported as 1.22. Moreover, the “inhibition” value in assay [2] was “strongly inhibited”. In assay [3], the “incorporation into the oocytes” value was “big incorporation” and the “transport by asc-1 (affinity in words)” value is recorded as “highly affinitive”. In assay [4], the “increase in the release” value was “significant increase”.

Consider `C[C@H](O)[C@@H](N)C(=O)O` [D-Threonine], for which, in assay [4], the “increase in the release” value is given as “significant increase”.

Regarding `N[C@H](CS)C(=O)O` [D-cysteine], the “inhibition” value in assay [2] is on record as “mediumly inhibited”. For the same compound, in assay [3], the “transport by asc-1 (affinity in words)” value is on record as “transports”. The “increase in the release” value in assay [4] was “significant increase”.

In the case of `NCC(=O)O` [Glycine], the Vmax in assay [1] is reported as 0.89. In assay [4], the “increase in the release” value is reported as “high increase”. For the same compound, the “release of injected 14C-labeled amino acid by extracellular alanine” value in assay [5] is “increase in release”.

For `N[C@@H](Cc1c[nH]cn1)C(=O)O` [L-Histidine], the Vmax in assay [1] came out at 0.79. In addition, the “transport by asc-1 (affinity in words)” value in assay [3] is listed as “lowly affinitive”.

As for `CC[C@H](C)[C@H](N)C(=O)O` [L-Isoleucine], in assay [1], the Vmax is 1.33. For the same compound, the “transport by asc-1 (affinity in words)” value in assay [3] is reported as “lowly affinitive”.

With `CSCC[C@H](N)C(=O)O` [L-Methionine], the Vmax in assay [1] is recorded as 1.15. Further, in assay [3], the “transport by asc-1 (affinity in words)” value was “lowly affinitive”. For the same compound, the “increase in the release” value in assay [4] is recorded as “medium increase”.

On to `N[C@@H](Cc1ccccc1)C(=O)O` [L-Phenylalanine], for which the Vmax in assay [1] is given as 1.09. Besides, the “transport by asc-1 (affinity in words)” value in assay [3] is “lowly affinitive”.

In the case of `CC(C)[C@H](N)C(=O)O` [L-Valine], in assay [1], the Vmax is reported as 1.17. The “transport by asc-1 (affinity in words)” value in assay [3] is given as “lowly affinitive”. For the same compound, in assay [4], the “increase in the release” value was “medium increase”.

Consider `CN[C@@H](C)C(=O)O` [N-methylalanine], for which the “inhibition” value in assay [2] is “did not affect”.

Take `COC(=O)[C@H](C)N` [alanine methyl ester]: the “inhibition” value in assay [2] was “inhibited”. In addition, in assay [3], the “transport by asc-1 (affinity in words)” value is “transports”. Further, in assay [4], the “increase in the release” value is recorded as “significant increase”.

As to `CNCC(=O)O` [sarcosine], in assay [2], the “inhibition” value was “did not affect”.

Turning to `NCCC(=O)O` [β-Alanine], in assay [1], the Vmax is 0.92. For the same compound, the “inhibition” value in assay [2] is on record as “inhibited”. For the same compound, in assay [3], the “incorporation into the oocytes” value is recorded as “big incorporation” and the “transport by asc-1 (affinity in words)” value was “transports”. The “increase in the release” value in assay [4] is “significant increase”.

γ-aminoisobutyric acid: the “inhibition” value in assay [2] was “did not affect”.
